From ChEMBL document CHEMBL5247598 (Eur J Med Chem, 2022)
Active and inactive are the calls of the source. The calls are words filed in the database; no cut-off is given here.

Columns and labels:
[1] = test system: HEK-293T; test: Cytotoxicity against human HEK293T cells assessed as cell survival rate at 10 uM incubated for 48 hrs by MTT assay; assay type: toxicity, cell-based
[2] = test system: NCI/ADR-RES; test: Induction of apoptosis in human NCI-ADR-RES cells assessed as early apoptotic cells at 3 uM incubated for 48 hrs by Annexin V-FITC and DAPI staining based flow cytometry (Rvb= 0.89 %); assay type: functional
[3] = test system: NCI/ADR-RES; test: Induction of apoptosis in human NCI-ADR-RES cells assessed as late apoptotic cells at 3 uM incubated for 48 hrs by Annexin V-FITC and DAPI staining based flow cytometry (Rvb= 0.66 %); assay type: functional
[4] = test system: NCI/ADR-RES; test: Induction of apoptosis in human NCI-ADR-RES cells assessed as necrotic cells at 3 uM incubated for 48 hrs by Annexin V-FITC and DAPI staining based flow cytometry (Rvb= 0.55 %); assay type: functional
[5] = test system: NCI/ADR-RES; test: Antiproliferative activity against human multidrug resistant NCI-ADR-RES cells overexpressing P-gp assessed as reduction in cell viability incubated for 48 hrs by MTT assay; assay type: functional, cell-based
[6] = test system: MCF7; test: Antiproliferative activity against human MCF7 cells assessed as inhibition of cell growth at 50 uM incubated for 48 hrs by MTT assay; assay type: functional, cell-based
[7] = test system: NCI/ADR-RES; test: Antiproliferative activity against human multidrug resistant NCI-ADR-RES cells assessed as inhibition of cell growth at 50 uM incubated for 48 hrs by MTT assay; assay type: functional, cell-based
[8] = test system: A549; test: Antiproliferative activity against human A549 cells assessed as inhibition of cell growth at 50 uM incubated for 48 hrs by MTT assay; assay type: functional, cell-based
[9] = test system: A549/TR; test: Antiproliferative activity against human Taxol resistant A549 cells assessed as inhibition of cell growth at 50 uM incubated for 48 hrs by MTT assay; assay type: functional, cell-based
[10] = test system: HCT-8; test: Antiproliferative activity against human HCT-8 cells assessed as inhibition of cell growth at 50 uM incubated for 48 hrs by MTT assay; assay type: functional, cell-based
[11] = test system: HEK-293T; test: Cytotoxicity against human HEK293T cells assessed as inhibition of cell growth at 50 uM incubated for 48 hrs by MTT assay; assay type: toxicity, cell-based
[12] = Cytotoxicity against mouse MPC-5 cells assessed as inhibition of cell growth at 50 uM incubated for 48 hrs by MTT assay; assay type: toxicity, cell-based; details: mpc-5, 48 h
[13] = test system: NCI/ADR-RES; test: Reversal of P-gp-mediated multidrug resistance in human NCI-ADR-RES cells assessed as potentiation of doxorubicin-induced cytotoxicity incubated for 48 hrs by MTT assay; assay type: functional, cell-based
[14] = test system: P-gp; test: Therapeutic index, ratio of IC50 for cytotoxicity against human HEK293T cells to EC50 for reversal of P-gp-mediated multidrug resistance in human NCI-ADR-RES cells; assay type: toxicity, cell-based; details: read-out: Ratio IC50/EC50
[15] = test system: NCI/ADR-RES; test: Reversal of P-gp-mediated multidrug resistance in human NCI-ADR-RES cells assessed as change in ABCB1 expression level at 1 to 10 uM incubated for 24 hrs by Western blot analysis; assay type: functional, cell-based; details: dose 1-10 µM
[16] = test system: NCI/ADR-RES; test: Reversal of P-gp-mediated multidrug resistance in human NCI-ADR-RES cells assessed as change in ABCB1 expression level at 1 to 10 uM incubated for 48 hrs by Western blot analysis; assay type: functional, cell-based; details: dose 1-10 µM
[17] = test system: NCI/ADR-RES; test: Reversal of P-gp-mediated multidrug resistance in human NCI-ADR-RES cells assessed as change in ABCB1 expression level at 1 to 10 uM incubated for 24 hrs in presence of doxorubicin by Western blot analysis; assay type: functional, cell-based; details: dose 1-10 µM
[18] = test system: NCI/ADR-RES; test: Reversal of P-gp-mediated multidrug resistance in human NCI-ADR-RES cells assessed as change in ABCB1 expression level at 1 to 10 uM incubated for 48 hrs in presence of doxorubicin by Western blot analysis; assay type: functional, cell-based; details: dose 1-10 µM
[19] = target: ATP-dependent translocase ABCB1 (Homo sapiens, UniProt P08183); test: Effect on P-gp (unknown origin) ATPase activity assessed as increased ATP consumption using Mg-ATP as substrate preincubated for 5 min followed by Mg-ATP addition and measured after 40 mins by P-gp Glo luminescence assay
ATP-dependent translocase ABCB1, sequence (P08183 whole entry): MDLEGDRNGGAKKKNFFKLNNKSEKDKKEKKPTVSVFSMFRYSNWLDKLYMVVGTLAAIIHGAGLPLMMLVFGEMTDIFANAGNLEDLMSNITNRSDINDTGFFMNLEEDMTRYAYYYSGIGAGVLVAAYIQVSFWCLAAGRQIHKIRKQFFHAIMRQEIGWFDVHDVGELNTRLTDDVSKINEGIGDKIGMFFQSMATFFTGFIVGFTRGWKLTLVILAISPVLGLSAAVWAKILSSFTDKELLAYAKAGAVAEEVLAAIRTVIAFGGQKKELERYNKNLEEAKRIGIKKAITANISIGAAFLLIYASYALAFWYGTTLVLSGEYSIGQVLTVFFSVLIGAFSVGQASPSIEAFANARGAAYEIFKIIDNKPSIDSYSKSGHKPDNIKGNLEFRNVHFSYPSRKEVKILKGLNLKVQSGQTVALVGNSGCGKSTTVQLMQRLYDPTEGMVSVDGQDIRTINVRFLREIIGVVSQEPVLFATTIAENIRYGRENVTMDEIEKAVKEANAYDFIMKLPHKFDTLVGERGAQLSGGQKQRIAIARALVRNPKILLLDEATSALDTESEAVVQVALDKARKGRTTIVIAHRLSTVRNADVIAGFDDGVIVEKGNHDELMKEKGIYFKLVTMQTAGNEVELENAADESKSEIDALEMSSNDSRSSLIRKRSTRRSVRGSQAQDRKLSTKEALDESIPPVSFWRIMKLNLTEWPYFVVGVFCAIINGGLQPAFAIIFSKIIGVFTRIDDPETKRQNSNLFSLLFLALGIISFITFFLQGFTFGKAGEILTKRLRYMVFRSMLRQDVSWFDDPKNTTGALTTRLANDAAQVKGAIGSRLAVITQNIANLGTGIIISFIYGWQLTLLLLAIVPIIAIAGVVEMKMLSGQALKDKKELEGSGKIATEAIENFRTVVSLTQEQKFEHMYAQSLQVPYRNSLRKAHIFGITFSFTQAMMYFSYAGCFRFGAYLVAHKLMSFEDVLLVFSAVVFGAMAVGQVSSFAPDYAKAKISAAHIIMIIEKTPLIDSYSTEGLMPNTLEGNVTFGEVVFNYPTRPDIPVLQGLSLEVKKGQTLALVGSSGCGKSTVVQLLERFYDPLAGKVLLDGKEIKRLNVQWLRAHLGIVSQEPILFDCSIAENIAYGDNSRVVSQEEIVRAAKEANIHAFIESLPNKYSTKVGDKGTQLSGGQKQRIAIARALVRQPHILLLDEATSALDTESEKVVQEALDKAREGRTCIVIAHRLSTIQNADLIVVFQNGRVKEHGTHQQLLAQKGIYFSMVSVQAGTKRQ

[20] = test system: NCI/ADR-RES; test: Induction of apoptosis in human NCI-ADR-RES cells assessed as early apoptotic cells at 3 uM incubated for 24 hrs by Annexin V-FITC and DAPI staining based flow cytometry (Rvb= 0.89 %); assay type: functional
[21] = test system: NCI/ADR-RES; test: Induction of apoptosis in human NCI-ADR-RES cells assessed as viable cells at 3 uM incubated for 24 hrs by Annexin V-FITC and DAPI staining based flow cytometry (Rvb= 97.9 %); assay type: functional; details: read-out: Activity
[22] = test system: NCI/ADR-RES; test: Induction of apoptosis in human NCI-ADR-RES cells assessed as necrotic cells at 8 uM incubated for 24 hrs in presence of doxorubicin by Annexin V-FITC and DAPI staining based flow cytometry (Rvb= 0.55 %); assay type: functional
[23] = test system: NCI/ADR-RES; test: Induction of apoptosis in human NCI-ADR-RES cells assessed as late apoptotic cells at 8 uM incubated for 24 hrs in presence of doxorubicin by Annexin V-FITC and DAPI staining based flow cytometry (Rvb= 0.66 %); assay type: functional
[24] = test system: NCI/ADR-RES; test: Induction of apoptosis in human NCI-ADR-RES cells assessed as viable cells at 8 uM incubated for 24 hrs in presence of doxorubicin by Annexin V-FITC and DAPI staining based flow cytometry (Rvb= 97.9 %); assay type: functional; details: read-out: Activity
[25] = test system: NCI/ADR-RES; test: Induction of apoptosis in human NCI-ADR-RES cells assessed as necrotic cells at 8 uM incubated for 48 hrs in presence of doxorubicin by Annexin V-FITC and DAPI staining based flow cytometry (Rvb= 0.55 %); assay type: functional
[26] = test system: NCI/ADR-RES; test: Induction of apoptosis in human NCI-ADR-RES cells assessed as late apoptotic cells at 8 uM incubated for 48 hrs in presence of doxorubicin by Annexin V-FITC and DAPI staining based flow cytometry (Rvb= 0.66 %); assay type: functional
[27] = test system: NCI/ADR-RES; test: Induction of apoptosis in human NCI-ADR-RES cells assessed as viable cells at 8 uM incubated for 48 hrs in presence of doxorubicin by Annexin V-FITC and DAPI staining based flow cytometry (Rvb= 97.9 %); assay type: functional; details: read-out: Activity
[28] = test system: NCI-ADR-RES; test: Inhibition of PI3K/AKT signaling pathway in human NCI-ADR-RES cells assessed as increase in Caspase-3 level at 3 uM incubated for 24 to 48 hrs in presence of doxorubicin by Western blot analysis; assay type: cell-based; details: time 24-48 hrs
[29] = test system: NCI-ADR-RES; test: Inhibition of PI3K/AKT signaling pathway in human NCI-ADR-RES cells assessed as increase in cleaved PARP level at 3 uM incubated for 24 to 48 hrs in presence of doxorubicin by Western blot analysis; assay type: cell-based; details: time 24-48 hrs
[30] = test system: NCI-ADR-RES; test: Inhibition of PI3K/AKT signaling pathway in human NCI-ADR-RES cells assessed as decrease in Bcl-2 level at 3 uM incubated for 24 to 48 hrs in presence of doxorubicin by Western blot analysis; assay type: cell-based; details: time 24-48 hrs
[31] = test system: NCI-ADR-RES; test: Inhibition of PI3K/AKT signaling pathway in human NCI-ADR-RES cells assessed as decrease in PI3K phosphorylation at 3 uM incubated for 24 to 48 hrs in presence of doxorubicin by Western blot analysis; assay type: cell-based; details: time 24-48 hrs
[32] = test system: NCI-ADR-RES; test: Inhibition of PI3K/AKT signaling pathway in human NCI-ADR-RES cells assessed as decrease in AKT phosphorylation at 3 uM incubated for 24 to 48 hrs in presence of doxorubicin by Western blot analysis; assay type: cell-based; details: time 24-48 hrs

Question: Which results are given for C=C1[C@H](OC(C)=O)[C@@H](OC(C)=O)[C@@H](OC(C)=O)C(C)(C)/C=C/[C@H](C)[C@H](OC(=O)c2ccccc2)[C@@]2(O)C[C@@](C)(OC(=O)C(C)(C)C)[C@H](OC(C)=O)[C@@H]2[C@H]1OCC(C)C?
Answer: Activity [1]: Non-Toxic; Activity [2]: 0.69%; Activity [3]: 0.73%; Activity [4]: 0.43%; IC50 [5]: > 100000 nM; Activity [6]: inactive; Activity [7]: inactive; Activity [8]: inactive; Activity [9]: inactive; Activity [10]: inactive; Activity [11]: Non-Toxic; Activity [12]: Non-Toxic; EC50 [13]: 182 nM; selectivity ratio [14]: 309; Activity [15]: inactive; Activity [16]: inactive; Activity [17]: Active; Activity [18]: Active; EC50 [19]: 357 nM; Activity [20]: 0.67%; viability at 3 µM [21]: 97.5%; Activity [22]: 0.24%; Activity [23]: 1.56%; viability at 8 µM [24]: 87.1%; Activity [25]: 10.7%; Activity [26]: 8.03%; viability at 8 µM [27]: 65%; inhibition [28]: Active; inhibition [29]: Active; inhibition [30]: Active; inhibition [31]: Active; inhibition [32]: Active
